Results taken from patent US20080171710A1, “The Redox/Fyn/c-Cbl Pathway” (priority 2007, published 2008).
Like-named read-outs stand apart in the source and are kept apart here.

Legend:
Erk1/2 = format: cell-based, rat
Method: Cells were deprived of PDGF-AA for 5 h before re-exposure to PDGF-AA (10 ng/ml) for 1 h for Western blot or 6 h for luciferase assays of pathway activation. Transient transfection was performed using Fugene6 (Roche, Basel, Switzerland ) transfection solution according to the manufacturer's protocol. For the luciferase assay, cells seeded in 12-well plates were transfected with a reporter plasmid SRE-Luc(firefly) or NF-κB-Luc(firefly) (BD-Clontech, Palo Alto, Calif., United States) and an internal control plasmid pRLSV40-LUC. Analyses of luciferase activity were performed according to the protocol of the Dual Luciferase Assay System (Promega, Madison, Wis., United States), which uses an internal control of Renilla luciferase for quantification, and relative light units were measured using a luminometer.
(§1) Anti-phosphorylated Erk monoclonal, anti-Erk monoclonal, anti-TrkC polyclonal anti-Fyn polyclonal, anti-EGFR polyclonal, anti-c-Met polyclonal, anti-phospho-tyrosine monoclonal, and anti-PDGFRα polyclonal antibodies were obtained from Santa Cruz Biotechnology (Santa Cruz, Calif., United States). Anti-c-Cbl monoclonal antibody was obtained from BD PharMingen (San Diego, Calif., United States). Anti-phosphorylated Akt monoclonal and anti-Akt polyclonal antibodies were obtained from Cell Signaling Technology (Beverly, Mass., United States). Anti-phosphorylated PDGPRα polyclonal antibody was obtained from Biosource (Carlsbad, Calif., United States). The cell culture samples were collected and lysed in RAPI buffer, whereas dissected tissue samples were sonicated in RAPI buffer. Samples were resolved on SDS-PAGE gels and transferred to PVDF membranes (PerkinElmer Life Science. Wellesley, Mass., United States), After being blocked in 5% skim milk in PBS containing 0.1% Tween 20, membranes were incubated with a primary antibody, followed by incubation with an HRP-conjugated secondary antibody (Santa Cruz Biotechnology). Membranes were visualized using Western Blotting Luminol Reagent (Santa Cruz Biotechnology). All analyses of signaling pathway components were conducted in the presence of ligand for the receptor pathway under analysis (either PDGF-AA for PDGFRα, NT-3 or TrkC, HGF for c-Met, or EGF for EGFR).

PDGFRα [1] = test: PDGFR ubiquitylation (immunoprecipitation assay); format: cell-based, rat; settings: co-exposure with MeHg
Method: (§2) For the co-immunoprecipitation assay, anti-c-Cbl monoclonal antibody (BD PharMingen) or anti-PDGFRα polyclonal antibody (Santa Cruz Biotechnology) was added to the pre-cleared cell lysates (250 μg of total protein), and the mixtures were gently rocked for 2 h at 4° C. A total of 30 μl of protein A/G agarose was then added to the mixture followed by rotating at 4° C. overnight. The protein A/G agarose was then spun down and washed thoroughly three times. The precipitates were resolved on an 8% SDS-PAGE gel and then were subjected to Western blot analysis using an anti-p-Tyr (for c-Cbl phosphorylation assay) or ubiquitin (for PDGFR ubiquitylation assay) antibody (Santa Cruz Biotechnology).

PDGFRα [2] = format: cell-based, rat; settings: for effect on MeHg-induced reductions in levels of PDGFRα: together with MeHg; for levels of PDGFRα: tamoxifen (100 nM; time course 4, 12, 24 hours)
c-Cbl [3] = format: cell-based, rat
Method: as §2

Fyn [4] = target: T1, Fyn (Rattus norvegicus, UniProt Q62844); format: cell-based
T1 construct: 250 μg of total cell lysates were immunoprecipitated with anti-Fyn antibody; endogenous in cells; host or cells: primary rat O-2A/OPCs
T1 sequence (Q62844 whole entry): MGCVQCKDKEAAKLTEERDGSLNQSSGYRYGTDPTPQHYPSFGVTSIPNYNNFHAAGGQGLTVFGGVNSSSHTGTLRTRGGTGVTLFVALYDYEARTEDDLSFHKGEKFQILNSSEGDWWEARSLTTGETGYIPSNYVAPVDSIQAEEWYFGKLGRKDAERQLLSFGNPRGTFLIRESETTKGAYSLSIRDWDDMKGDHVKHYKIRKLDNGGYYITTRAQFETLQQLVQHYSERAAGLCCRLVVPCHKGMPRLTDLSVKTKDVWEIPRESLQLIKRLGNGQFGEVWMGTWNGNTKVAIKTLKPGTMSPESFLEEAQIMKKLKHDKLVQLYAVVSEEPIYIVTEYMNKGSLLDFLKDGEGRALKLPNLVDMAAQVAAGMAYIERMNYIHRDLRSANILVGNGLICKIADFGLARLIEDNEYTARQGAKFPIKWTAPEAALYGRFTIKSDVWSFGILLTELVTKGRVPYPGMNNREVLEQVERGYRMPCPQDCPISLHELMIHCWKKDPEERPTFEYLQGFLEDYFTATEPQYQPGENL
Method: Fyn kinase activity was quantified using the Universal Tyrosine Kinase Assay Kit (Takara, Madison, Wis., United States). O-2A/OPCs exposed to different treatments were solubilized with an equal volume of the extraction buffer provided with the kit for 15 min, and the resulting lysates were centrifuged at 13,000×g for 15 min at 4° C.; 250 μg of total cell lysates were immunoprecipitated with anti-Fyn antibody (Santa Cruz Biotechnology). Following immunoprecipitation, Fyn immune complexes were washed four times with extraction buffer, and then Fyn kinase activities of each sample were assayed using the kit according to the manufacturer's instructions.

PDGFRα [5] = test: PDGFRα phosphorylation (Western blot, anti-PDGFRα(pY742)); format: cell-based, rat
Excerpt: The cells were then collected and lysed for Western blotting. […] Cells were lysed for Western blot analysis using anti-PDGFRα(pY742) antibody. The membranes were de-probed and then re-probed with antibody against total PDGFRα and anti-β-tubulin antibody. […]
as §1

O-2A/OPCs [6] = test: Cell death of O-2A/OPCs on exposure; format: cell-based, rat; settings: MeHg at lower concentrations (not above 50 nM); 1 μM Pb; 5 μM paraquat
Method: To generate sufficient numbers of cells for biochemical analysis, cells, were expanded through one to two passages in PDGF+FGF-2 before replating in the presence of PDGF alone. When cells achieved approximately 50% confluence, MeHg, Pb, or paraquat was added to their medium at concentrations indicated. Doses for the toxicants were chosen on the basis of dose-response curves to identify sub-lethal exposure levels, as a reflection of blood and brain toxicant levels of these compounds and, where applicable, on the basis of previous reports. All toxicant concentrations examined were confirmed to cause death of less than 5% of cells over the time course of the experiment.

c-Met = format: cell-based, rat
Excerpt: as §1

TrkC = format: cell-based, rat
Excerpt: as §1

EGFR = format: cell-based, rat
Excerpt: as §1

O-2A/OPCs [7] = test: Intracellular ROS / redox state measurement; format: cell-based, rat; settings: 1 μM Pb or 5 μM paraquat; dyes dihydro-chloromethyl-rosamine or dihydro-calcein-AM
Method: Cells were plated in 96-well microplates and grown to about 60% continence. […] Cells were then washed once with HBSS and growth medium to remove free probe. Then, fresh growth medium was added and a baseline fluorescence reading was taken prior to treatment. For NAC pre-treatment. […] Fluorescence was measured in a Wallac 1420 Victor2 multilabel counter (PerkinElmer) using excitation and emission wavelengths of 485 nm and 535 nm, respectively, at different time courses as indicated in the figures. Results are presented as the value change from baseline by the formula (Ftexp−Ftbase)/Ftbase normalized with the control group, where Ftexp=fluorescence at any given time during the experiment in a give well and Ftbase=baseline fluorescence of the same well.

O-2A/OPCs [8] = test: In vitro BrdU incorporation assay; format: cell-based, rat; settings: TMX 10 nM, 100 nM and 1 μM, 2 days
Method: Cell proliferation was assessed by bromodeoxyuridine (BrdU) incorporation and by using the mouse anti-BrdU mAb IgGl (1:100; Sigma) to label dividing cells. Stained cells on cover slips were rinsed two times in 1×PBS, counterstained with 4′6-diamidino-2-phenylindole (DAPI; Molecular Probes, Eugene, Oreg., United States) and mounted on glass slides with Fluoromount (Molecular Probes). Staining against surface proteins was performed on cultures of living cells or on cells fixed with 2% paraformaldehyde. Staining with intracellular antibodies was performed by permeabilizing cells with ice-cold methanol for 4 min or by using 0.5% Triton for 15 mm on 2% parafomaldhyde-fixed cells. Antibody binding was detected with appropriate fluorescent dye-conjugated secondary antibodies at 10 μg/ml (Southern Biotech, Birmingham, Ala., United States) or Alexa Fluor-coupled antibodies at a concentration of 1 μg/ml (Molecular Probes), applied for 20 min. Anti-BrdU monoclonal antibody was obtained from Sigma.

MDA-MB-231 cell = MDA-MB-231 cell division by BrdU incorporation; format: cell-based; settings: 20 μM tamoxifen, 48 hours
Method: It has been reported that c-Cbl induced down-regulation of EGFR is disabled in cancer cells (Hirsch DS, Shen. Y, Wu WJ, (2006) Cancer Res. Apr 1;66(7):3523-30). Thus, growth and motility inhibition of breast cancer cells by EGFR degradation is correlated with inaetivation of Cdc42. […] Cells were cultured in phenol red-free growth media and exposed to TMX (0, 1 μM, 10 μM, 20 μM and 50 μM) for 48 hours, with or without 1 mM NAC. In FIG. 22C. MDA-MB-231 cell division was analyzed by BrdU incorporation analysis. […] Percentage of Brdu+ cells from DAPI+ cells was determined in each sample.

c-Cbl [9] = test: c-Cbl protein level after RNAi (Western blot); format: cell-based, rat; settings: expression of RNAi construct
Excerpt: (§3) Anti-phosphorylated Erk monoclonal, anti-Erk monoclonal, anti-TrkC polyclonal anti-Fyn polyclonal, anti-EGFR polyclonal, anti-c-Met polyclonal, anti-phospho-tyrosine monoclonal, and anti-PDGFRα polyclonal antibodies were obtained from Santa Cruz Biotechnology (Santa Cruz, Calif., United States). Anti-c-Cbl monoclonal antibody was obtained from BD PharMingen (San Diego, Calif., United States). Anti-phosphorylated Akt monoclonal and anti-Akt polyclonal antibodies were obtained from Cell Signaling Technology (Beverly, Mass., United States). Anti-phosphorylated PDGPRα polyclonal antibody was obtained from Biosource (Carlsbad, Calif., United States). The cell culture samples were collected and lysed in RAPI buffer, whereas dissected tissue samples were sonicated in RAPI buffer. […]
(§4) siRNA target sites were selected by scanning the cDNA sequence for AA dinucleotides via siRNA target finder (Ambion, Austin, Tex., United States). Those 19-nucleotide segments that start with G immediately downstream of AA were recorded and then analyzed by BLAST search to eliminate any sequences with significant similarity to other genes. […]

Fyn [10] = test: Fyn protein level after RNAi (Western blot); format: cell-based, rat; settings: expression of RNAi construct
Excerpt: as §3, §4

[11] = 30 nM MeHg, 1 μM Pb, 5 μM paraquat

Which results are given for `Cl.N` [NH4Cl, ammonium chloride]?
effect on Aβ(1-42) suppression of PDGF-mediated Erk1/2 phosphorylation (Erk1/2; co-exposure with Aβ(1-42)): not; effect on MeHg-associated suppression of Erk1/2 phosphorylation (Erk1/2; co-treatment with MeHg): blocked; levels of ubiquitylated PDGFRα in MeHg-treated cells (PDGFRα [1]): increased levels of ubiquityiated receptor; effect on Aβ-induced reduction in PDGFRα levels (PDGFRα [2]; co-exposure with Aβ): blocked; effect on MeHg-induced reductions in levels of PDGFRα (PDGFRα [2]): blocked; effect on MeHg-induced c-Cbl phosphorylation (c-Cbl [3]; added 1 h before MeHg): lack of effect; effect on Aβ-induced increase in phosphorylated c-Cbl (c-Cbl [3]; co-exposure with Aβ): not blocked; effect on MeHg-induced Fyn activation (Fyn [4]; added 1 h before MeHg): lack of effect; effect on MeHg-induced suppression of PDGFRα phosphorylation (PDGFRα [5]; co-exposure with MeHg): protected

What does the source list for `C[n+]1ccc(-c2cc[n+](C)cc2)cc1` [paraquat]?
PDGF-induced Erk1/2 phosphorylation after toxicant exposure (Erk1/2; 30 nM MeHg 24 h, 1 μM Pb, 5 μM paraquat): reduced levels of Erk1/2 phosphorylation; cell death at the concentrations used (O-2A/OPCs [6]): did not cause cell death; total levels of PDGFRα after toxicant exposure (PDGFRα [2]; MeHg 30 nM, 1 μM Pb, 5 μM paraquat): reduced; levels of c-Met after toxicant exposure (c-Met; MeHg, Pb or paraquat): also reduced; levels of TrkC after toxicant exposure (TrkC; MeHg, Pb or paraquat): neither Pb or paraquat caused a reduction; levels of EGFR after toxicant exposure (EGFR; MeHg, Pb or paraquat): also reduced; cells more oxidized (intracellular redox state) (O-2A/OPCs [7]): approximately 20%; c-Cbl phosphorylation after toxicant exposure (c-Cbl [3]; [11]): increased phosphorylation of c-Cbl; Fyn activation after toxicant exposure (Fyn [4]; [11]): activation of Fyn; phosphorylation of PDGFRα after toxicant exposure (PDGFRα [5]; [11]): reduced

How did the O-2A/OPC division (O-2A/OPCs [8]) turn out when `CC/C(=C(\c1ccccc1)c1ccc(OCCN(C)C)cc1)c1ccccc1` [tamoxifen] was run?
Its O-2A/OPC division is “Suppression”.

And the “levels of PDGFRα” value (PDGFRα [2])?
The value was “causes reductions”.

What about the “levels of PDGFRα” value (PDGFRα [2]; listed as TMX) of the same molecule?
Its value is “parallel reduction over time”.

And the “levels of c-Met” value (c-Met; TMX exposure)?
The value was “decreased”.

And the “levels of Trk (non-c-Cbl target)” value (TrkC; TMX treatment)?
The value was “no differences”.

And the “levels of EGFR” value (EGFR; TMX exposure)?
Its value is “decreased”.

What about the c-Cbl activation (c-Cbl [3]; 100 nM tamoxifen) of the same molecule?
The c-Cbl activation was “activates”.

And the “reduction in cell division” value (MDA-MB-231 cell)?
Its value is ~10%.

What about the “levels of phosphorylated PDGFRα” value (PDGFRα [5]; TMX exposure 4, 12, 24 hours) of the same molecule?
Its value is “parallel reduction over time”.

B1: c-Cbl RNAi: c-Cbl siRNA construct, SEQ ID NO: 3 and 4 (nucleic acid)
chain 1: GTGCATCCCATCAGTTCTGTTCAAGAGACAGAACTGATGGGATGCACTTTTTT
chain 2: AATTAAAAAAGTGCATCCCATCAGTTCTGTCTCTTGAACAGAACTGATGGGATGCACGGCC
modifications: expressed or natural sequence
How did the “effect on MeHg-induced reductions in levels of PDGFRα” value (PDGFRα [2]) turn out when B1 was run?
The value was “protected”.

And the “effect on Pb- and paraquat-induced reductions in levels of PDGFRα” value (PDGFRα [2]; together with Pb (1 μM) or paraquat (5 μM))?
The value was “prevented”.

And the “levels of c-Cbl protein” value (c-Cbl [9])?
The value was “caused a reduction”.

B2: Fyn-Scr-RNAi: scrambled negative control for Fyn RNAi, SEQ ID NO: 5 and 6 (nucleic acid)
chain 1: CCCGGGTTTCAATATATTTCTCAAGAGAAAATATATTGAAACCCGGGTTTTTT
chain 2: AATTAAAAAACCCGGGTTTCAATATATTTTCTCTTGAGAAATATATTGAAACCCGGGGGCC
How did the “effect on MeHg-induced reductions in levels of PDGFRα” value (PDGFRα [2]) turn out when B2 was run?
Its value is “not”.

And the “levels of Fyn protein” value (Fyn [10])?
Its value is “had no effect”.
